Source: the CheMixHub drug solubility set

Assay: xn = mol fraction of the nth substance listed, in the solute-free solvent

Clc1ncnc2[nH]ccc12 + C1CCOC1 + CC(C)O
solubility (g/100 g solution)
Conditions | 278.15 K | 283.15 K | 288.15 K | 293.15 K | 298.15 K | 303.15 K | 308.15 K | 313.15 K | 318.15 K | 323.15 K
x2 = 0.1584 | 3.68 | 4.2 | 4.8 | 5.46 | 6.15 | 6.89 | 7.74 | 8.58 | 9.6 | 10.6
x2 = 0.32 | 5.12 | 5.79 | 6.49 | 7.25 | 8.17 | 9.04 | 9.96 | 10.9 | 12 | 13.2
x2 = 0.4848 | 6.63 | 7.38 | 8.22 | 9.03 | 9.99 | 10.9 | 12 | 13.1 | 14.2 | 15.3
x2 = 0.5685 | 7.34 | 8.12 | 8.96 | 9.81 | 10.8 | 11.9 | 12.8 | 14 | 15.1 | 16.3
x2 = 0.6531 | 7.99 | 8.83 | 9.69 | 10.6 | 11.6 | 12.6 | 13.7 | 14.7 | 15.8 | 17
x2 = 0.8247 | 8.95 | 9.82 | 10.7 | 11.6 | 12.6 | 13.5 | 14.6 | 15.7 | 16.7 | 17.9

O=[N+]([O-])c1cc[nH]n1 + CCCO + O
solubility (g/100 g solution)
Conditions | 283.15 K | 288.15 K | 293.15 K | 298.15 K | 303.15 K | 308.15 K | 313.15 K | 318.15 K | 323.15 K
x2 = 0.03225 | 0.274 | 0.349 | 0.477 | 0.616 | 0.783 | 1.04 | 1.33 | 1.86 | 2.35
x2 = 0.06974 | 0.307 | 0.377 | 0.489 | – | 0.772 | 1.01 | 1.29 | 1.68 | 2.18
x2 = 0.1139 | 0.626 | 0.769 | 0.945 | 1.16 | 1.45 | 1.78 | 2.31 | 2.95 | 3.78
x2 = 0.1666 | 0.964 | 1.19 | 1.43 | 1.76 | 2.13 | 2.64 | 3.29 | 4.2 | 5.32
x2 = 0.2307 | 1.35 | 1.63 | 1.97 | 2.36 | 2.87 | 3.48 | 4.23 | 5.37 | 6.75
x2 = 0.3103 | 1.73 | 2.03 | 2.41 | 2.87 | 3.44 | 4.09 | 4.96 | 6.34 | 7.73
x2 = 0.4117 | 2.08 | 2.44 | 2.82 | 3.32 | 3.87 | 4.69 | 5.64 | 6.61 | 8.31
x2 = 0.5454 | 2.49 | 2.85 | 3.25 | 3.76 | 4.35 | 5.08 | 6.07 | 7.31 | 8.56
x2 = 0.7297 | 2.69 | 3.11 | 3.53 | 4 | 4.54 | 5.23 | 6.03 | 7.19 | 8.45

O=C(CC(=O)c1ccccc1)c1ccccc1 + CO + O
solubility (g/100 g solution)
Conditions | 278.15 K | 283.15 K | 288.15 K | 293.15 K | 298.15 K | 303.15 K | 308.15 K | 313.15 K | 318.15 K
x2 = 0.2 | 0.0215 | 0.0248 | 0.0305 | 0.0358 | 0.0488 | 0.0621 | 0.0667 | 0.0775 | 0.0881
x2 = 0.4 | 0.0257 | 0.0323 | 0.039 | 0.0541 | 0.0826 | 0.13 | 0.162 | 0.236 | 0.322
x2 = 0.6 | 0.165 | 0.351 | 0.562 | 0.643 | 0.783 | 0.822 | 0.987 | 1.02 | 1.05
x2 = 0.8 | 0.491 | 0.788 | 1.01 | 1.11 | 1.35 | 1.7 | 1.98 | 2.52 | 2.72

O=c1ccc2ccccc2o1 + CCO + O
solubility (g/100 g solution)
Conditions | 278.15 K | 283.15 K | 288.15 K | 293.15 K | 298.15 K | 303.15 K | 308.15 K | 313.15 K | 318.15 K
x2 = 0.1429 | 0.201 | 0.363 | 0.646 | 1.12 | 1.9 | 3.1 | 4.94 | 7.56 | 12.1
x2 = 0.2857 | 0.809 | 1.49 | 2.82 | 4.84 | 8.59 | 14.1 | 23.6 | 36.2 | 52.4
x2 = 0.4286 | 2.35 | 4.02 | 6.77 | 10.7 | 17.5 | 25.7 | 37.2 | 51.5 | 65.7
x2 = 0.5714 | 3.44 | 5.45 | 9.19 | 13.8 | 21.1 | 30.1 | 41.7 | 56 | 70
x2 = 0.7143 | 3.65 | 5.85 | 9.47 | 14.4 | 21 | 30.5 | 40.9 | 54.9 | 68.7
x2 = 0.8571 | 3.18 | 5.14 | 8.31 | 12.7 | 19.3 | 28.4 | 38.2 | 51.8 | 66.4

O=c1[nH]cc(F)c(=O)[nH]1 + CCCO + C1CCOC1
solubility (g/100 g solution)
Conditions | 283.15 K | 288.15 K | 293.15 K | 298.15 K | 303.15 K | 308.15 K | 313.15 K | 318.15 K | 323.15 K
x2 = 0.2307 | 0.148 | 0.169 | 0.195 | 0.226 | 0.263 | 0.313 | 0.373 | 0.452 | 0.536
x2 = 0.4444 | 0.17 | 0.196 | 0.225 | 0.258 | 0.299 | 0.351 | 0.42 | 0.496 | 0.588
x2 = 0.6428 | 0.201 | 0.229 | 0.258 | 0.297 | 0.34 | 0.397 | 0.467 | 0.543 | 0.625
x2 = 0.8276 | 0.228 | 0.263 | 0.298 | 0.34 | 0.393 | 0.457 | 0.539 | 0.651 | 0.763

CN1CCN(C(=O)OC2c3nccnc3C(=O)N2c2ccc(Cl)cn2)CC1 (stereo unspecified) + CC#N + O
solubility (g/100 g solution)
Conditions | x2 = 0.3 | x2 = 0.4 | x2 = 0.5 | x2 = 0.6 | x2 = 0.7 | x2 = 0.8 | x2 = 0.9
288.15 K | 0.593 | 1.13 | 2.08 | 2.78 | 3.27 | 3.38 | 2.87
298.15 K | 0.785 | 1.72 | 2.61 | 3.38 | 4.09 | 4.14 | 3.55
308.15 K | 0.997 | 2.11 | 3.4 | 4.41 | 5.3 | 5.38 | 4.63
318.15 K | 1.26 | 2.67 | 4.26 | 5.76 | 6.74 | 7.02 | 6.08
328.15 K | 1.77 | 3.23 | 5.56 | 7.47 | 8.64 | 8.93 | 8.18

Clc1ncnc2[nH]ccc12 + C1CCOC1 + CC#N
solubility (g/100 g solution)
Conditions | 278.15 K | 283.15 K | 288.15 K | 293.15 K | 298.15 K | 303.15 K | 308.15 K | 313.15 K | 318.15 K | 323.15 K
x2 = 0.1144 | 1.32 | 1.6 | 1.93 | 2.31 | 2.76 | 3.28 | 3.83 | 4.5 | 5.24 | 6.02
x2 = 0.2441 | 2.03 | 2.39 | 2.84 | 3.33 | 3.92 | 4.49 | 5.24 | 5.97 | 6.81 | 7.73
x2 = 0.3923 | 3.17 | 3.65 | 4.24 | 4.84 | 5.58 | 6.34 | 7.13 | 8.04 | 9.06 | 10.1
x2 = 0.4748 | 3.9 | 4.49 | 5.13 | 5.83 | 6.63 | 7.45 | 8.34 | 9.34 | 10.4 | 11.5
x2 = 0.5636 | 5.02 | 5.61 | 6.32 | 7.09 | 8 | 8.89 | 9.89 | 10.9 | 12 | 13.2
x2 = 0.7635 | 7.14 | 8 | 8.83 | 9.79 | 10.7 | 11.8 | 12.8 | 14 | 15.2 | 16.4
